In US20110171309A1, “Compositions and Methods for Composite Nanoparticle Hydrogels” (Board of Regents, The University of Texas System, priority 2008, published 2011):

What was measured:
[1] = test system: NIH/3T3 fibroblast cells; details: concentrations 0.05% (w/w); cited from earlier work
[2] = test system: human aortic smooth muscle cells; assay: Combined effects of photoinitiator and UV exposure on cell survival, MTS assay; assay type: cell-based; details: 3 days
Method: (§1) Human aortic smooth muscle cells (HASMC) were cultured in complete medium consisting of Dulbecco's modified Eagle medium supplemented with 10% fetal bovine serum and 1% penicillin-streptomycin (Invitrogen, Carlsbad, Calif.). Upon 80-90% confluency, the cells were passaged or used for experiments. For all experiments, the cells were seeded in 24-well plates (Corning, Corning, N.Y.) at a density of 7000 cells per well. Following seeding, the cells were incubated at 37 °C and 5% CO2 in a humid environment for 2 days to allow cellular attachment and growth. After 2 days, the HASMCs were exposed to varying concentrations of the photoinitiator Irgacure 2959 (Ciba Specialty Chemicals), and/or UV exposure.
The cellular damage due to the combined effects of photoinitiator and UV exposure was evaluated. Briefly, the HASMCs were seeded onto 24-well plates and allowed to grow for 2 days. Irgacure 2959 solutions with final concentrations of 0.01%, 0.015%, 0.04%, and 0.08% (w/v) in complete media were prepared. After adding these solutions, cells were incubated for 30 min to allow for the mixing of the photoinitiator. The well plates were then exposed to 1, 3, and 5 min of UV light. Wells containing cells not exposed to either UV light or photoinitiator solution served as controls for this experiment. Cell samples were incubated for 3 days before analyzing the cell survival. […] The cell survival for the controls was determined to be 1±0.09.
(§2) After the experiments, the cell survival was quantified using the MTS assay (CellTiter 961 Aqueous One Solution Cell Proliferation Assay, Promega) following the manufacturer's instructions. The cells were incubated with the MTS reagent for 4 h, after which 200 μL of the solution was transferred to 96-well plates, and absorbance was read at 490 nm using a microplate reader (VMax, Molecular Devices). Relative cell survival was obtained by dividing the absorbance reading of a cell sample by the mean absorbance value of the control.

[3] = test system: human aortic smooth muscle cells; assay: Cytotoxic effects of photoinitiator concentrations, MTS assay; assay type: cell-based; details: no UV, 3 days
Method: as §1
To evaluate the cytotoxic effects of photoinitiator concentrations on HASMCs, the cells were seeded and cultured as described earlier. Irgacure 2959 was directly dissolved in complete media to obtain final concentrations of 0.01%, 0.02%, 0.04%, 0.08%, and 0.16% (w/v). These photoinitiator concentrations were well within the range required for photopolymerization in a short period of time. […] These solutions were then sterilized using 0.2-μm syringe filters before they were added to the HASMCs. The control wells consisted of cells incubated with photoinitiator-free complete media. After the addition of the photoinitiator, the cells were incubated for 3 days, and then cell survival was determined using MTS assays. The cell survival for the controls was determined to be 1±0.09. […] Upon increasing the photoinitiator concentrations above 0.02% (w/v), a statistically significant decrease was noticed in the relative cell survival.
as §2

[4] = test system: human aortic smooth muscle cells; assay: Ascorbic acid scavenging of free radicals to increase cell survival, MTS assay; assay type: cell-based; details: 50 mg/L ascorbic acid, 0.15% (w/v) Irgacure 2959, 5 min UV, 3 days
Method: The efficiency of the antioxidant, ascorbic acid, was evaluated in scavenging the free radicals in an effort to increase cell survival. HASMCs were exposed to 0.15% (w/v) solution of Irgacure 2959 in complete media supplemented with varying concentrations of ascorbic acid (0-200 mg/L). After incubating for 30 min, the cells were exposed to 5 min of UV light, and cell survival was quantified after 3 days. To evaluate the effect of added antioxidants on the gelation time, the gelation times (i.e., the time required for the materials to form a gel) were determined using three methods on 96-well plates. […] Then, the solution was monitored at that this specific wavelength AQ3 (610 nm) over a time course. The result was graphed as function of time, and the gelation time was defined as the time that had the highest changes in the absorbance intensities.
as §2

## CC(C)(O)C(=O)c1ccc(OCCO)cc1 [Irgacure 2959, 2-hydroxy-1-[4-(2-hydroxyethoxy)phenyl]-2-methyl-1-propanone]
[1]
  fibroblast survival: does not affect fibroblast survival
[2]; 0.01% (w/v), 1, 3 and 5 min UV
  relative cell survival: did not show any statistically significant decrease in relative cell survival
[2]; 0.015% (w/v), 1, 3 and 5 min UV
  relative cell survival: did not show any statistically significant decrease in relative cell survival
[2]; 0.04% (w/v), 1 min UV
  relative cell survival: 0.76±0.05
[2]; 0.04% (w/v), 3 min UV
  relative cell survival: 0.74±0.04
[2]; 0.04% (w/v), 5 min UV
  relative cell survival: 0.67±0.05
[3]; 0.01% (w/v)
  relative cell survival: 1.03±0.10
[3]; 0.02% (w/v)
  relative cell survival: 0.85±0.09
[3]; 0.16% (w/v)
  relative cell survival: 0.25±0.01
[3]; below 0.02% (w/v)
  cell survival: no significant decrease in cell survival

## O=C1O[C@H]([C@@H](O)CO)C(O)=C1O [ascorbic acid]
[4]
  relative cell survival compared to samples without ascorbic acid: significantly improve the relative cell survival rates
